Measurements from PubChem BioAssay AID2060627 (Molecular Pharmacology Branch, DTP, NCI, 2025).
“And” between values parts separate entries of the source, which are not always exact repeats. Identical values can stand only once.

Test system: 156681-154-R-J1-PDC complex spheroid viability
Assay: Anticancer human tumor 156681-154-R-J1-PDC patient-derived melanoma cell line growth inhibition [CLK]
Details: for viability, T/C: stronger effect = lower value
Method in brief: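 Patient-derived tumor cells grown as complex spheroids with HUVEC endothelial cells and mesenchymal stem cells, treated with drug combinations. Concentrations descend in half-log steps from near clinical Cmax, or from 10 microM if Cmax unknown.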

[1] = curve of first compound, second compound 0.0316 µM
[2] = curve of first compound, second compound 0.1 µM
[3] = curve of first compound, second compound 0.316 µM
[4] = curve of first compound, second compound 1 µM
[5] = curve of first compound, second compound 3.16 µM
[6] = curve of first compound, second compound 10 µM
[7] = second compound 0.0316 µM, first compound 0.000949 µM
[8] = second compound 0.0316 µM, first compound 0.003 µM
[9] = second compound 0.0316 µM, first compound 0.00949 µM
[10] = second compound 0.0316 µM, first compound 0.03 µM
[11] = second compound 0.0316 µM, first compound 0.0949 µM
[12] = second compound 0.0316 µM, first compound 0.3 µM
[13] = second compound 0.1 µM, first compound 0.000949 µM
[14] = second compound 0.1 µM, first compound 0.003 µM
[15] = second compound 0.1 µM, first compound 0.00949 µM
[16] = second compound 0.1 µM, first compound 0.03 µM
[17] = second compound 0.1 µM, first compound 0.0949 µM
[18] = second compound 0.1 µM, first compound 0.3 µM
[19] = second compound 0.316 µM, first compound 0.000949 µM
[20] = second compound 0.316 µM, first compound 0.003 µM
[21] = second compound 0.316 µM, first compound 0.00949 µM
[22] = second compound 0.316 µM, first compound 0.03 µM
[23] = second compound 0.316 µM, first compound 0.0949 µM
[24] = second compound 0.316 µM, first compound 0.3 µM
[25] = second compound 1 µM, first compound 0.000949 µM
[26] = second compound 1 µM, first compound 0.003 µM
[27] = second compound 1 µM, first compound 0.00949 µM
[28] = second compound 1 µM, first compound 0.03 µM
[29] = second compound 1 µM, first compound 0.0949 µM
[30] = second compound 1 µM, first compound 0.3 µM
[31] = second compound 3.16 µM, first compound 0.000949 µM
[32] = second compound 3.16 µM, first compound 0.003 µM
[33] = second compound 3.16 µM, first compound 0.00949 µM
[34] = second compound 3.16 µM, first compound 0.03 µM
[35] = second compound 3.16 µM, first compound 0.0949 µM
[36] = second compound 3.16 µM, first compound 0.3 µM
[37] = second compound 10 µM, first compound 0.000949 µM
[38] = second compound 10 µM, first compound 0.003 µM
[39] = second compound 10 µM, first compound 0.00949 µM
[40] = second compound 10 µM, first compound 0.03 µM
[41] = second compound 10 µM, first compound 0.0949 µM
[42] = second compound 10 µM, first compound 0.3 µM
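Note: spheroids exposed to the agents for seven days.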
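Throughout, for viability, T/C: 100% = DMSO vehicle control viability.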

## COc1c(OCCCN2CCOCC2)ccc2c3n(c(=NC(=O)c4cnc(N)nc4)nc12)CCN3
Compound 0.00316 µM
  viability, T/C: 73.2% and 68.2%
Compound 0.01 µM
  viability, T/C: 69.9% and 67.5%
Compound 0.0316 µM
  viability, T/C: 45.8% and 39.1%
Compound 0.1 µM
  viability, T/C: 19.1% and 13.5%
Compound 0.316 µM
  viability, T/C: 3.62% and 2.73%
Compound 1 µM
  viability, T/C: 1.16% and 0.46%
Curve of compound
  IC50: 27 nM and 20.3 nM

## CC(C)CC(NC(=O)C(Cc1ccccc1)NC(=O)c1cnccn1)B(O)O (stereo unspecified) + CNC(=O)c1ccc(Nc2nc(OC3CCCC3)c3c(-c4ccc5nc(C)oc5c4)c[nH]c3n2)c(OC)c1
[1]
  IC50: < 0.949 nM
[2]
  IC50: < 0.949 nM
[3]
  IC50: < 0.949 nM
[4]
  IC50: < 0.949 nM
[5]
  IC50: < 0.949 nM
[6]
  IC50: < 0.949 nM
[7]
  viability, T/C: 9.11%
[8]
  viability, T/C: 2.74%
[9]
  viability, T/C: 0.21%
[10]
  viability, T/C: 0.23%
[11]
  viability, T/C: 0.18%
[12]
  viability, T/C: 1.15%
[13]
  viability, T/C: 15.1%
[14]
  viability, T/C: 0.3%
[15]
  viability, T/C: 0.24%
[16]
  viability, T/C: 0.21%
[17]
  viability, T/C: 0.18%
[18]
  viability, T/C: 1.03%
[19]
  viability, T/C: 16.6%
[20]
  viability, T/C: 0.88%
[21]
  viability, T/C: 0.24%
[22]
  viability, T/C: 0.19%
[23]
  viability, T/C: 0.15%
[24]
  viability, T/C: 0.15%
[25]
  viability, T/C: 15.8%
[26]
  viability, T/C: 0.29%
[27]
  viability, T/C: 1.19%
[28]
  viability, T/C: 0.21%
[29]
  viability, T/C: 0.19%
[30]
  viability, T/C: 1.63%
[31]
  viability, T/C: 14.2%
[32]
  viability, T/C: 1%
[33]
  viability, T/C: 1.37%
[34]
  viability, T/C: 0.21%
[35]
  viability, T/C: 0.2%
[36]
  viability, T/C: 0.39%
[37]
  viability, T/C: 14.7%
[38]
  viability, T/C: 1.3%
[39]
  viability, T/C: 0.27%
[40]
  viability, T/C: 0.31%
[41]
  viability, T/C: 0.26%
[42]
  viability, T/C: 0.15%

## CC(C)CC(NC(=O)C(Cc1ccccc1)NC(=O)c1cnccn1)B(O)O (stereo unspecified) + CN1CCN(c2cc(C(=O)Nc3cc4cc(-c5cnn(C)c5)ccc4cn3)ccn2)CC1
[1]
  IC50: < 0.949 nM
[2]
  IC50: < 0.949 nM
[3]
  IC50: < 0.949 nM
[4]
  IC50: < 0.949 nM
[5]
  IC50: < 0.949 nM
[6]
  IC50: < 0.949 nM
[7]
  viability, T/C: 30.4%
[8]
  viability, T/C: 2%
[9]
  viability, T/C: 1.41%
[10]
  viability, T/C: 0.26%
[11]
  viability, T/C: 1.66%
[12]
  viability, T/C: 1.32%
[13]
  viability, T/C: 28%
[14]
  viability, T/C: 0.48%
[15]
  viability, T/C: 1.04%
[16]
  viability, T/C: 0.2%
[17]
  viability, T/C: 0.26%
[18]
  viability, T/C: 0.77%
[19]
  viability, T/C: 13%
[20]
  viability, T/C: 0.37%
[21]
  viability, T/C: 0.66%
[22]
  viability, T/C: 0.14%
[23]
  viability, T/C: 0.29%
[24]
  viability, T/C: 1.48%
[25]
  viability, T/C: 0.13%
[26]
  viability, T/C: 0.37%
[27]
  viability, T/C: 0.14%
[28]
  viability, T/C: 0.09%
[29]
  viability, T/C: 1.37%
[30]
  viability, T/C: 0.12%
[31]
  viability, T/C: 0.33%
[32]
  viability, T/C: 1.51%
[33]
  viability, T/C: 0.09%
[34]
  viability, T/C: 0.08%
[35]
  viability, T/C: 3.52%
[36]
  viability, T/C: 1.36%
[37]
  viability, T/C: 0.1%
[38]
  viability, T/C: 1.45%
[39]
  viability, T/C: 2.17%
[40]
  viability, T/C: 0.1%
[41]
  viability, T/C: 1.66%
[42]
  viability, T/C: 0.84%
